The record followed here is publication PMC6179045, “Design, synthesis and biological evaluation of tricyclic pyrazolo[1,5-c][1,3]benzoxazin-5(5H)-one scaffolds as selective BuChE inhibitors” (Journal of Enzyme Inhibition and Medicinal Chemistry, 2018).

For orientation: IC50 means the midpoint of a concentration-inhibition curve. For orientation: inhibition means the share of the control response that was lost under treatment. One may read the Ki as the dissociation constant of the complex between target and ligand, obtained from inhibition or displacement. What is called logP is a log measure of how a compound divides between an organic and an aqueous phase. Low readings indicate lower lipophilicity, high ones higher lipophilicity. Usually viability stands for the share of living cells, or the viability signal relative to a control.

Like-named read-outs stand apart in the source and are kept apart here.

For data set [1], the target named is T1, BuChE from equine serum (eqBuChE) (Equus caballus, UniProt P81908).
T1 construct: BuChE from equine serum (C4290-1KU; Sigma); purchased Sigma C4290-1KU; host or cells: equine serum
T1 sequence (P81908 whole entry): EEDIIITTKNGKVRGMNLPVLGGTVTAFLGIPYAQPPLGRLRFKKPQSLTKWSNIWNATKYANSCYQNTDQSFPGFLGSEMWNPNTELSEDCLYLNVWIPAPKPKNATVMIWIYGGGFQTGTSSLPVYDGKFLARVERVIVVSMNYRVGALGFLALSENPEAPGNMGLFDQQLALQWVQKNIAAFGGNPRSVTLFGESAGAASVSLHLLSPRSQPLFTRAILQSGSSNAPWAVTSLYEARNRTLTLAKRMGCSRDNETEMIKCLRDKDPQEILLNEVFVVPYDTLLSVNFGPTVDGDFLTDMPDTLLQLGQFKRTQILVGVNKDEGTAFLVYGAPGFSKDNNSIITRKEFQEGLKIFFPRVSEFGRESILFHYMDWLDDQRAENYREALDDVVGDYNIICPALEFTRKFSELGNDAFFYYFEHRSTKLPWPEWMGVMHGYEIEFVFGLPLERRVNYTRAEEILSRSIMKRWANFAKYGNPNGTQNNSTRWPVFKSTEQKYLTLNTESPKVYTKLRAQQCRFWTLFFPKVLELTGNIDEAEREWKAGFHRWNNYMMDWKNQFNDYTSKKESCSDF
Put plainly: BuChE activity assay (modified Ellman's method). The settings on record: for IC50: mean ± SEM, n = 3; for inhibition at 20 µM / inhibition % at 20 µM BuChE: 20 µM compound. In kind it is biochemical, equine (horse). The procedure: (§1) Enzymatic activity assays were performed on AChE from electric eel (C3389-500UN; Sigma) and BuChE from equine serum (C4290-1KU; Sigma), according to Ellman’s method with light modification. The experiment was performed in 48-well plates in a final volume of 500 µl. Each well contained 0.036 U/ml of EeAChE or eqBuChE, and 0.1 M pH = 8 phosphate buffer. They were incubated for 20 min at different concentrations of test compound at 37 °C. […] The DTNB produced the yellow anion 5-thio-2-nitrobenzoic acid along with the enzymatic degradation of acetylthiocholine or butyrylthiocholine. The absorbance of each assay was measured at 410 nm after 20 min in a Biotek Synergy HTX Multi-Mode reader. The IC50 values were calculated graphically from inhibition curves (log inhibitor concentration vs percent of inhibition). A control experiment was performed under the same conditions without inhibitor and the blank contained buffer, DMSO, DTNB and substrate.
(DTNB colorimetry detects thiols as they appear.)

Data set [2] concerns the target T2, AChE from electric eel (EeAChE) (Electrophorus electricus, UniProt O42275).
T2 construct: AChE from electric eel (C3389-500UN; Sigma); purchased Sigma C3389-500UN
The data set can be described thus: AChE activity assay (modified Ellman's method). In kind it is biochemical. The settings on record: for IC50: mean ± SEM, n = 3. The protocol: as §1

The target of another data set is T3, eqBuChE (Equus caballus, UniProt P81908).
T3 construct: BuChE from equine serum (C4290-1KU; Sigma); purchased Sigma C4290-1KU; host or cells: equine serum
T3 sequence (P81908 whole entry): as above
Put plainly: Kinetic study of eqBuChE inhibition (Lineweaver-Burk plots). In kind it is biochemical, equine (horse). The protocol:
. The kinetic type of enzyme inhibition was obtained through the modified Ellman’s method and Lineweaver–Burk secondary plots. Apparent inhibition constants and kinetic parameters were calculated within the “Enzyme kinetics” module of Prism 5.
The kinetic studies were carried out at three fixed inhibitor concentrations (5, 10 and 20 µM).

Data set [3] is described as follows: Log P assessment (shake flask method, octanol/PBS). In kind it is physicochemical. The settings on record: octanol/PBS pH 7.4, shake flask, 37 °C. The protocol: Log P, defined as the logarithm of octanol–water partition coefficient, is an important parameter to evaluate lipophilicity of compounds[45]. It can be calculated by determining the concentration of compound in octanol phase and water phase until the partition equilibrium was completed. In this work, log P of title compounds was measured by the shake flask method with slight modification. PBS (pH = 7.4) was used as the water. Both the octanol and the aqueous phase were saturated with each other before use. The assay mixture containing test compounds was shaken at 37 °C. After 24 h, the mixture was centrifuged at 4,000 rpm for 30 min, followed by the measurement with UV spectrophotometer. Experiments were conducted in triplicate and log p values were calculated.

The nature of data set [4]: Cytotoxicity MTT assay in PC12 cells. Format: cell-based. The settings on record: rat, 1-50 µM, read-out: relative cell viability (cytotoxicity). The procedure: PC12 cells were used to evaluate cell cytotoxicity by methyl thiazolyl tetrazolium (MTT) assay. PC12 cells were cultured in DMEM containing 10% fetal bovine serum, 100 µg/ml streptomycin and 100 units/ml penicillin at 37 °C in a 5% CO2 humidified atmosphere, and inoculated at 1 × 10^4 cells per well in 96-well plate. After cultured for 24 h, the cells were treated with different concentration of compounds in DMEM for 24 h. Then 20 µl of 0.5 mg/ml MTT reagent was added into the cells and incubated for 4 h. After 4 h, cell culture was removed and then 150 µl DMSO was added to dissolve the formazan. The optical density was measured at 570 nm (OD570). Cell viability was calculated from three independent experiments. OD570 of formazan in blank group was set as 100% of viability.
Blank: cultured with fresh medium only.
(In general: Tetrazolium assays rely on reduction of a dye to a coloured formazan, in cell work by metabolically active cells.)

In data set [5] the test system is differentiated PC12 cells. Put plainly: Neuroprotective effect against H2O2-induced damage in differentiated PC12 cells. Format: cell-based. The settings on record: Rattus norvegicus, PC-12, 25 µM compound 3 h before H2O2 (300 µM), 24 h, MTT, p < .05 vs. H2O2 alone, read-out: cell viability (neuroprotective activity). The procedure: The differentiated PC12 cells and oxidative agent H2O2 were used as in vitro model to assess neuronal differentiation and neurobiochemical and neurobiological properties[39]^,[44]. Differentiated PC12 cells were incubated with different concentrations of compounds 6a and 6g for 3 h before treatment with H2O2 (300 µM). Cell viability was measured after 24 h using MTT method. Briefly, 20 µL of 0.5 mg/ml MTT reagent was added into the cells and incubated for 4 h. After 4 h, cell culture was removed and then 150 µl DMSO was added to dissolve the formazan. OD570 value was measured at 570 nm on the Biotek Synergy HTX Multi-Mode reader. Results were adjusted by OD570 value in the blank.
. The differentiated PC12 cells were pretreated with three concentrations (10, 25 and 50 µM) for 3 h, before treatment with H2O2 (300 µM), and cell viability was measured after 24 h using MTT method. […]. Neuroprotective activity of compounds 6a and 6g […] was evaluated by subjecting PC12 cells to H2O2-induced damage. […]

Setting [6] is: AChE from electric eel, 20 µM compound, read-out: inhibition at 20 µM AChE.
Setting [7] is: BuChE from horse serum, read-out: inhibition % at 20 µM BuChE.
The mark [8] stands for this setting: AChE from electric eel, 20 µM compound.
The mark [9] stands for this setting: AChE from electric eel, 20 µM compound, read-out: inhibition % at 20 µM AChE.
Setting [10] is: BuChE from horse serum, read-out: inhibition at 20 µM BuChE.

T2 sequence (O42275 24-633): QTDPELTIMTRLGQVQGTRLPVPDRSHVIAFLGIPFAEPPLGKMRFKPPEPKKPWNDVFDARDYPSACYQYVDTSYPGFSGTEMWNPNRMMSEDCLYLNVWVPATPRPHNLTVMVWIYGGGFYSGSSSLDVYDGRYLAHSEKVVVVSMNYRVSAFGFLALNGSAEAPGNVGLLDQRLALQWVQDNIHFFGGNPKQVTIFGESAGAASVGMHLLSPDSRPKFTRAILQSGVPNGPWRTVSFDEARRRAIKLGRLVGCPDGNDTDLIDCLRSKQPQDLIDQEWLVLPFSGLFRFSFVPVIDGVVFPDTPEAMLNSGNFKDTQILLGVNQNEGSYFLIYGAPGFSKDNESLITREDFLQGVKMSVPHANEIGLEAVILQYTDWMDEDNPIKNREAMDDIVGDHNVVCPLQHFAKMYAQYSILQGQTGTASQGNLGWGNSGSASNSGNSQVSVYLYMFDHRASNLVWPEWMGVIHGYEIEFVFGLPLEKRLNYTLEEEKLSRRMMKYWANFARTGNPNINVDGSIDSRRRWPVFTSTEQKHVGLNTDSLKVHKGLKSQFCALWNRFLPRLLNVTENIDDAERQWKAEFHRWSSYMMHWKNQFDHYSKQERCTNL

As for `O=C1Oc2ccccc2C2CC(c3ccccc3)=NN12` (stereo not shown) [Compound 3a, 2-Phenyl-1,10b-dihydro-5H-pyrazolo[1,5-c][1,3]benzoxazin-5-one], the half-inhibitory concentration (IC50) in data set [1] (BuChE from horse serum) worked out at 9.47 ± 0.23 µM. The inhibition at 20 µM in data set [2] (setting [6]) was under 0%.
For `S=C1Oc2ccccc2C2CC(c3ccccc3)=NN12` (stereo not shown) [Compound 3b, 2-Phenyl-1,10b-dihydro-5H-pyrazolo[1,5-c][1,3]benzoxazin-5-thione], the inhibition at 20 µM is 9 ± 3% in data set [1] (setting [7]) and under 0% in data set [2] (setting [6]).
On to `O=C1Oc2ccccc2C2CC(c3ccc(F)cc3)=NN12` (stereo not shown) [Compound 3c, 2-(4-Fluoro)phenyl-1,10b-dihydro-5H-pyrazolo[1,5-c][1,3]benzoxazin-5-one], for which, in data set [1] (BuChE from horse serum), the “inhibition % at 20 µM BuChE” value came out at 15 ± 2%. Moreover, in data set [2] (setting [8]), the “inhibition % at 20 µM AChE” value amounted to 15 ± 3%.
For `O=C1Oc2ccc(Cl)cc2C2CC(c3ccc(Cl)cc3)=NN12` (stereo not shown) [Compound 3d, 9-Chloro-2-(4-chloro)phenyl-1,10b-dihydro-5H-pyrazolo[1,5-c][1,3]benzoxazin-5-one], in that order: 41 ± 6% and 39 ± 1%.
In the same order, the values of `Cc1ccc(C2=NN3C(=O)Oc4ccc(Cl)cc4C3C2)cc1` (stereo not shown) [Compound 3e, 9-Chloro-2-(4-methyl)phenyl-1,10b-dihydro-5H-pyrazolo[1,5-c][1,3]benzoxazin-5-one] are 32 ± 5% and 32 ± 2%.
In the same order, the values of `Cc1ccc(C2=NN3C(=O)Oc4ccccc4C3C2)cc1` (stereo not shown) [Compound 3f, 2–(4-Methyl)phenyl-1,10b-dihydro-5H-pyrazolo[1,5-c][1,3]benzoxazin-5-one] are 32 ± 2% and 48 ± 3%.
For `CC1=NN2C(=O)Oc3c(Cl)cc(Cl)cc3C2C1` (stereo not shown) [Compound 6a, 7,9-Dichloro-2-methyl-1,10b-dihydro-5H-pyrazolo[1,5-c][1,3]benzoxazin-5-one], the “type of BuChE inhibition” value on eqBuChE (Lineweaver-Burk plots) is reported as “mixed-type inhibition”. Besides, on eqBuChE (Lineweaver-Burk secondary plots, inhibitor 5, 10 and 20 µM, read-out: dissociation constant Ki against BuChE), the Ki worked out at 7.46 µM. This compound also returned a log partition coefficient (logP) at 24 h in data set [3] of 1.5. The IC50 in data set [1] (BuChE from horse serum) stood at 1.06 ± 0.11 µM. Besides, in data set [4], the viability at 24 h is over 90%. Also, the viability at 25 µM in data set [5] was over 70%. Further, in data set [2] (setting [9]), the inhibition at 20 µM was 39 ± 3%.
For `CC1=NN2C(=S)Oc3c(Cl)cc(Cl)cc3C2C1` (stereo not shown) [Compound 6b, 7,9-Dichloro-2-methyl-1,10b-dihydro-5H-pyrazolo[1,5-c][1,3]benzoxazin-5-thione], the inhibition at 20 µM in data set [1] (setting [10]) was under 0%; in data set [2] (setting [9]), 25 ± 1%.
As to `CC1=NN2C(=O)Oc3c(Br)cc(Br)cc3C2C1` (stereo not shown) [Compound 6c, 7,9-Dibromo-2-methyl-1,10b-dihydro-5H-pyrazolo[1,5-c][1,3]benzoxazin-5-one], the logP at 24 h in data set [3] came to 1.48. For the same compound, the IC50 was 1.63 ± 0.42 µM in data set [1] (BuChE from horse serum) and 10.7 ± 0.64 µM in data set [2] (AChE from electric eel).
As to `CC1=NN2C(=S)Oc3c(Br)cc(Br)cc3C2C1` (stereo not shown) [Compound 6d, 7,9-Dibromo-2-methyl-1,10b-dihydro-5H-pyrazolo[1,5-c][1,3]benzoxazin-5-thione], the inhibition at 20 µM is under 0% in data set [1] (setting [10]) and 26 ± 3% in data set [2] (setting [9]).
For `CC1=NN2C(=O)Oc3ccc(Cl)cc3C2C1` (stereo not shown) [Compound 6e, 9-Chloro-2-methyl-1,10b-dihydro-5H-pyrazolo[1,5-c][1,3]benzoxazin-5-one], the IC50 in data set [1] (BuChE from horse serum) was found to be 6.29 ± 0.65 µM. Also, in data set [2] (setting [9]), the inhibition at 20 µM was determined as 16 ± 1%.
For the compound `CC1=NN2C(=S)Oc3ccc(Cl)cc3C2C1` (stereo not shown) [Compound 6f, 9-Chloro-2-methyl-1,10b-dihydro-5H-pyrazolo[1,5-c][1,3]benzoxazin-5-thione], the values for the inhibition at 20 µM in data set [1] (setting [10]) and in data set [2] (setting [9]) were under 0% and 18 ± 2%, respectively.
For `CC1=NN2C(=S)Oc3ccc(Br)cc3C2C1` (stereo not shown) [Compound 6h, 9-Bromo-2-methyl-1,10b-dihydro-5H-pyrazolo[1,5-c][1,3]benzoxazin-5-thione], in that order: under 0% and 27 ± 2%.
`CC1=NN2C(=O)Oc3c(Br)cc(Cl)cc3C2C1` (stereo not shown) [Compound 6i, 7-Bromo-9-chloro-2-methyl-1,10b-dihydro-5H-pyrazolo[1,5-c][1,3]benzoxazin-5-one]: the half-inhibitory concentration (IC50) was determined as 2.44 ± 0.44 µM in data set [1] (BuChE from horse serum) and 13 ± 0.32 µM in data set [2] (AChE from electric eel).
In the case of `CC1=NN2C(=S)Oc3c(Br)cc(Cl)cc3C2C1` (stereo not shown) [Compound 6j, 7-Bromo-9-chloro-2-methyl-1,10b-dihydro-5H-pyrazolo[1,5-c][1,3]benzoxazin-5-thione], the values for the inhibition at 20 µM in data set [1] (setting [10]) and in data set [2] (setting [9]) were under 0% and 14 ± 2%, respectively.
Regarding `COc1cccc2c1OC(=O)N1N=C(C)CC21` (stereo not shown) [Compound 6k, 2-Methyl-7-methoxy-1,10b-dihydro-5H-pyrazolo[1,5-c][1,3]benzoxazin-5-one], the “inhibition % at 20 µM BuChE” value in data set [1] (BuChE from horse serum) was determined as 14 ± 3%. Moreover, the inhibition at 20 µM in data set [1] (setting [7]) was under 20%; in data set [2] (setting [9]) it was 35 ± 3%.
For the compound `COc1cccc2c1OC(=S)N1N=C(C)CC21` (stereo not shown) [Compound 6l, 2-Methyl-7-methoxy-1,10b-dihydro-5H-pyrazolo[1,5-c][1,3]benzoxazin-5-thione], the inhibition at 20 µM in data set [1] (setting [7]) came to 2 ± 2%; in data set [2] (setting [9]), 30 ± 2%.
Regarding `CC1=NN2C(=O)Oc3ccc(C)cc3C2C1` (stereo not shown) [Compound 6m, 2,9-Dimethyl-1,10b-dihydro-5H-pyrazolo[1,5-c][1,3]benzoxazin-5-one], in data set [1] (BuChE from horse serum), the “inhibition % at 20 µM BuChE” value is reported as 14 ± 1%. For the same compound, the inhibition at 20 µM is under 20% in data set [1] (setting [7]) and under 0% in data set [2] (setting [6]).
Consider `CC1=NN2C(=S)Oc3ccc(C)cc3C2C1` (stereo not shown) [Compound 6n, 2,9-Dimethyl-1,10b-dihydro-5H-pyrazolo[1,5-c][1,3]benzoxazin-5-thione], for which the inhibition at 20 µM in data set [1] (setting [10]) was under 0%; in data set [2] (setting [9]) it was 15 ± 2%.
Consider `CC1=NN2C(=O)Oc3ccccc3C2C1` (stereo not shown) [Compound 6o, 2-Methyl-1,10b-dihydro-5H-pyrazolo[1,5-c][1,3]benzoxazin-5-one], for which the inhibition at 20 µM in data set [1] (read-out: inhibition % at 20 µM BuChE, BuChE from horse serum) was 50.1 ± 4.3%; in data set [2] (read-out: inhibition at 20 µM AChE), under 0%.
`CC1=NN2C(=S)Oc3ccccc3C2C1` (stereo not shown) [Compound 6p, 2-Methyl-1,10b-dihydro-5H-pyrazolo[1,5-c][1,3]benzoxazin-5-thione]: the inhibition at 20 µM in data set [1] (setting [10]) and in data set [2] (setting [6]) was under 0% throughout.
With `CC1=NN2C(=O)Oc3c(Br)cccc3C2C1` (stereo not shown) [Compound 6q, 7-Bromo-2-methyl-1,10b-dihydro-5H-pyrazolo[1,5-c][1,3]benzoxazin-5-one], the IC50 in data set [1] (BuChE from horse serum) was 3.22 ± 1.06 µM. Moreover, the inhibition at 20 µM in data set [2] (setting [6]) is under 0%.
